According to patent US20230277534A1 (Plexxikon Inc., priority 2011, published 2023):

How the values were obtained:
[1] = molecular target: B-Raf V600E (Homo sapiens (Human), UniProt P15056, V600E); test: B-Raf V600E kinase biochemical activity assay (AlphaScreen, biotin-MEK1 substrate); conditions: 100 μM ATP
How it was run: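 B-Raf V600E (0.1 ng) phosphorylated 100 nM biotin-MEK1 with 100 μM ATP (final) in HEPES pH 7.0 with Mg2+/Mn2+ for 45 min at room temperature. Compounds were tested over an 8-point serial dilution. Phospho-MEK1/2 was detected by AlphaScreen after 3 h with beads, and IC50 came from signal versus concentration.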

[2] = tested on: COLO205 colon adenocarcinoma cells (B-Raf V600E mutation); test: COLO205 cell growth inhibition (ATPlite); format: cell-based; conditions: Homo sapiens, COLO 205, 72 h, 3 days
How it was run: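 Cells treated for 3 days at 37 °C, 5% CO2 with an 8-point 1:3 dilution series, top final concentration 10 μM, DMSO control. ATPlite luminescence used as a measure of cell number; IC50 from reading versus concentration.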

B-Raf V600E, sequence (P15056 whole entry V600E): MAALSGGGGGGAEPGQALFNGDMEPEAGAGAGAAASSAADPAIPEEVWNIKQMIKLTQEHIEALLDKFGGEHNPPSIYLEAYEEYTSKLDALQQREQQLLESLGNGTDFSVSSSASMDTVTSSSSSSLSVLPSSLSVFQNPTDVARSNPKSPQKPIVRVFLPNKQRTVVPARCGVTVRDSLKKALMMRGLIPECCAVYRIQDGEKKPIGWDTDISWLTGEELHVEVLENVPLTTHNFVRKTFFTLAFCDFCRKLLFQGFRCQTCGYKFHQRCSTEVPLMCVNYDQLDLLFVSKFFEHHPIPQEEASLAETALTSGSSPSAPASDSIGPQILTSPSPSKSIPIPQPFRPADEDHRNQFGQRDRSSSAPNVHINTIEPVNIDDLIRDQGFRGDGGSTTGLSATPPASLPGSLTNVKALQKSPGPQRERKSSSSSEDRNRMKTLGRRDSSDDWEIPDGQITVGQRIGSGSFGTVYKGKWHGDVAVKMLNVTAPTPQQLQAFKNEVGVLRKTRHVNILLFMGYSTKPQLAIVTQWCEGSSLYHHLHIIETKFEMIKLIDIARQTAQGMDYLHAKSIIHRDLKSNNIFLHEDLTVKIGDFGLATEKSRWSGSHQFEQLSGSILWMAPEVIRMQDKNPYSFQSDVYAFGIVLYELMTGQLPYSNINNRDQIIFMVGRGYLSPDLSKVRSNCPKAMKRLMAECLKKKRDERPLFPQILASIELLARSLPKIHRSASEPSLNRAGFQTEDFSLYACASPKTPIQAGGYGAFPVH

Row | Compound | IC50 [1] [µM] | IC50 [2] [µM]
1 | O=C(c1c(F)ccc(NS(=O)(=O)N2CCCC2)c1F)c1c[nH]c2ncc(-c3cnc(C4CC4)nc3)cc12 [Compound P-0241, N-[3-[5-(2-cyclopropylpyrimidin-5-yl)-1H-pyrrolo[2,3-b]pyridine-3-carbonyl]-2,4-difluoro-phenyl]pyrrolidine-1-sulfonamide] | < 0.1 | < 1
2 | CCCNS(=O)(=O)Nc1cccc(C(=O)c2c[nH]c3ncc(-c4cnn(C)c4)cc23)c1F [Compound P-0242, [2-fluoro-3-(propylsulfamoylamino)phenyl]-[5-(1-methylpyrazol-4-yl)-1H-pyrrolo[2,3-b]pyridin-3-yl]methanone] | < 0.1 | > 1
3 | O=C(c1cccc(NS(=O)(=O)N2CCCC2)c1F)c1c[nH]c2ncc(-c3ccc(C4(C(=O)O)CC4)cc3)cc12 [Compound P-0243, 1-[4-[3-[2-fluoro-3-(pyrrolidin-1-ylsulfonylamino)benzoyl]-1H-pyrrolo[2,3-b]pyridin-5-yl]phenyl]cyclopropanecarboxylic acid] | < 0.1 | > 1
4 | CC1(C)CCN(S(=O)(=O)Nc2cccc(C(=O)c3c[nH]c4ncc(-c5cnc(C6CC6)nc5)cc34)c2F)C1 [Compound P-0246, N-[3-[5-(2-cyclopropylpyrimidin-5-yl)-1H-pyrrolo[2,3-b]pyridine-3-carbonyl]-2-fluoro-phenyl]-3,3-dimethyl-pyrrolidine-1-sulfonamide] | < 0.1 | > 1
5 | CC1CCN(S(=O)(=O)Nc2cccc(C(=O)c3c[nH]c4ncc(-c5cnc(C6CC6)nc5)cc34)c2F)C1 (stereo not shown) [Compound P-0247, N-[3-[5-(2-cyclopropylpyrimidin-5-yl)-1H-pyrrolo[2,3-b]pyridine-3-carbonyl]-2-fluoro-phenyl]-3-methyl-pyrrolidine-1-sulfonamide] | < 0.1 | < 1
6 | CN(C1CC1)S(=O)(=O)Nc1cccc(C(=O)c2c[nH]c3ncc(-c4cnc(C5CC5)nc4)cc23)c1F [Compound P-0249, 3-[3-[[cyclopropyl(methyl)sulfamoyl]amino]-2-fluoro-benzoyl]-5-(2-cyclopropylpyrimidin-5-yl)-1H-pyrrolo[2,3-b]pyridine] | < 0.1 | < 1
7 | CCCNS(=O)(=O)Nc1cccc(C(=O)c2c[nH]c3ncc(-c4cnc(C5CC5)nc4)cc23)c1F [Compound P-0251, [5-(2-cyclopropylpyrimidin-5-yl)-1H-pyrrolo[2,3-b]pyridin-3-yl]-[2-fluoro-3-(propylsulfamoylamino)phenyl]methanone] | < 0.1 | > 1
8 | CN(C1CC1)S(=O)(=O)Nc1ccc(F)c(C(=O)c2c[nH]c3ncc(-c4cnc(C5CC5)nc4)cc23)c1F [Compound P-0252, 3-[3-[[cyclopropyl(methyl)sulfamoyl]amino]-2,6-difluoro-benzoyl]-5-(2-cyclopropylpyrimidin-5-yl)-1H-pyrrolo[2,3-b]pyridine] | < 0.1 | < 1
9 | NC(=O)C1(c2ccc(-c3cnc4[nH]cc(C(=O)c5cccc(NS(=O)(=O)N6CCCC6)c5F)c4c3)cc2)CC1 [Compound P-0253, 1-[4-[3-[2-fluoro-3-(pyrrolidin-1-ylsulfonylamino)benzoyl]-1H-pyrrolo[2,3-b]pyridin-5-yl]phenyl]cyclopropanecarboxamide] | < 0.1 | > 1
10 | CCOc1ncc(-c2cnc3[nH]cc(C(=O)c4c(F)ccc(NS(=O)(=O)N(C)CC)c4F)c3c2)cn1 [Compound P-0256, 5-(2-ethoxypyrimidin-5-yl)-3-[3-[[ethyl(methyl)sulfamoyl]amino]-2,6-difluoro-benzoyl]-1H-pyrrolo[2,3-b]pyridine] | < 0.1 | < 1
11 | CCN(C)S(=O)(=O)Nc1ccc(F)c(C(=O)c2c[nH]c3ncc(-c4cnc(N5CCOCC5)nc4)cc23)c1F [Compound P-0258, 4-[5-[3-[3-[[ethyl(methyl)sulfamoyl]amino]-2,6-difluoro-benzoyl]-1H-pyrrolo[2,3-b]pyridin-5-yl]pyrimidin-2-yl]morpholine] | < 0.1 | < 1
12 | CCN(C)S(=O)(=O)Nc1ccc(F)c(C(=O)c2c[nH]c3ncc(-c4cccc(N5CCOCC5)c4)cc23)c1F [Compound P-0259, 4-[3-[3-[3-[[ethyl(methyl)sulfamoyl]amino]-2,6-difluoro-benzoyl]-1H-pyrrolo[2,3-b]pyridin-5-yl]phenyl]morpholine] | < 0.1 | < 1
13 | CN1CCN(c2ncc(-c3cnc4[nH]cc(C(=O)c5c(F)ccc(NS(=O)(=O)N6CCCC6)c5F)c4c3)cn2)CC1 [Compound P-0260, N-[2,4-difluoro-3-[5-[2-(4-methylpiperazin-1-yl)pyrimidin-5-yl]-1H-pyrrolo[2,3-b]pyridine-3-carbonyl]phenyl]pyrrolidine-1-sulfonamide] | < 0.1 | < 1
14 | O=C(c1c(F)ccc(NS(=O)(=O)N2CCCC2)c1F)c1c[nH]c2ncc(-c3cnc(N4CCNCC4)nc3)cc12 [Compound P-0261, N-[2,4-difluoro-3-[5-(2-piperazin-1-ylpyrimidin-5-yl)-1H-pyrrolo[2,3-b]pyridine-3-carbonyl]phenyl]pyrrolidine-1-sulfonamide] | < 0.1 | < 1
15 | O=C(c1c(F)ccc(NS(=O)(=O)N2CCCC2)c1F)c1c[nH]c2ncc(-c3cnc(N4CCC(O)CC4)nc3)cc12 [Compound P-0262, N-[2,4-difluoro-3-[5-[2-(4-hydroxy-1-piperidyl)pyrimidin-5-yl]-1H-pyrrolo[2,3-b]pyridine-3-carbonyl]phenyl]pyrrolidine-1-sulfonamide] | < 0.1 | < 1
16 | CCN(C)S(=O)(=O)Nc1ccc(F)c(C(=O)c2c[nH]c3ncc(-c4cnc(N5CCN(C)CC5)nc4)cc23)c1F [Compound P-0263, 3-[3-[[ethyl(methyl)sulfamoyl]amino]-2,6-difluoro-benzoyl]-5-[2-(4-methylpiperazin-1-yl)pyrimidin-5-yl]-1H-pyrrolo[2,3-b]pyridine] | < 0.1 | < 1
17 | CCN(C)S(=O)(=O)Nc1ccc(F)c(C(=O)c2c[nH]c3ncc(-c4cnc(N5CCNCC5)nc4)cc23)c1F [Compound P-0268, 3-[3-[[ethyl(methyl)sulfamoyl]amino]-2,6-difluoro-benzoyl]-5-(2-piperazin-1-ylpyrimidin-5-yl)-1H-pyrrolo[2,3-b]pyridine] | < 0.1 | < 1
18 | O=C(c1c(F)ccc(NS(=O)(=O)N2CCCC2)c1F)c1c[nH]c2ncc(-c3cnc(N4CCC4)nc3)cc12 [Compound P-0269, N-[3-[5-[2-(azetidin-1-yl)pyrimidin-5-yl]-1H-pyrrolo[2,3-b]pyridine-3-carbonyl]-2,4-difluoro-phenyl]pyrrolidine-1-sulfonamide] | < 0.1 | < 1
19 | C[C@@H]1CCN(S(=O)(=O)Nc2cccc(C(=O)c3c[nH]c4ncc(-c5cnc(C6CC6)nc5)cc34)c2F)C1 [Compound P-0271, (3R)—N-[3-[5-(2-cyclopropylpyrimidin-5-yl)-1H-pyrrolo[2,3-b]pyridine-3-carbonyl]-2-fluoro-phenyl]-3-methyl-pyrrolidine-1-sulfonamide] | < 0.1 | < 1
20 | O=C(c1cccc(NS(=O)(=O)N2CCCC2)c1F)c1c[nH]c2ncc(C3CC3)cc12 [Compound P-0274, N-[3-(5-cyclopropyl-1H-pyrrolo[2,3-b]pyridine-3-carbonyl)-2-fluoro-phenyl]pyrrolidine-1-sulfonamide] | < 0.1 | > 1
21 | CCN(C)S(=O)(=O)Nc1ccc(F)c(C(=O)c2c[nH]c3ncc(-c4cnc(N5CCC(O)CC5)nc4)cc23)c1F [Compound P-0275, 3-[3-[[ethyl(methyl)sulfamoyl]amino]-2,6-difluoro-benzoyl]-5-[2-(4-hydroxy-1-piperidyl)pyrimidin-5-yl]-1H-pyrrolo[2,3-b]pyridine] | < 0.1 | < 1
22 | CCN(C)S(=O)(=O)Nc1ccc(F)c(C(=O)c2c[nH]c3ncc(-c4cccc(C5(C#N)CC5)c4)cc23)c1F [Compound P-0276, 5-[3-(1-cyanocyclopropyl)phenyl]-3-[3-[[ethyl(methyl)sulfamoyl]amino]-2,6-difluoro-benzoyl]-1H-pyrrolo[2,3-b]pyridine] | < 0.1 | > 1
23 | CCN(C)S(=O)(=O)Nc1ccc(F)c(C(=O)c2c[nH]c3ncc(-c4cnc(N5CCC5)nc4)cc23)c1F [Compound P-0277, 5-[2-(azetidin-1-yl)pyrimidin-5-yl]-3-[3-[[ethyl(methyl)sulfamoyl]amino]-2,6-difluoro-benzoyl]-1H-pyrrolo[2,3-b]pyridine] | > 0.1 | < 1
24 | Nc1ncc(-c2cnc3[nH]cc(C(=O)c4c(F)ccc(NS(=O)(=O)N5CCCC5)c4F)c3c2)cn1 [Compound P-0279, N-[3-[5-(2-aminopyrimidin-5-yl)-1H-pyrrolo[2,3-b]pyridine-3-carbonyl]-2,4-difluoro-phenyl]pyrrolidine-1-sulfonamide] | < 0.1 | < 1
25 | O=C(c1cccc(NS(=O)(=O)N2CCCC2)c1F)c1c[nH]c2ncc(-c3ccncc3)cc12 [Compound P-0281, N-[2-fluoro-3-[5-(4-pyridyl)-1H-pyrrolo[2,3-b]pyridine-3-carbonyl]phenyl]pyrrolidine-1-sulfonamide] | < 0.1 | < 1
26 | O=C(c1c(F)ccc(NS(=O)(=O)N2CCCC2)c1F)c1c[nH]c2ncc(-c3ccnc(N4CCOCC4)n3)cc12 [Compound P-0282, N-[2,4-difluoro-3-[5-(2-morpholinopyrimidin-4-yl)-1H-pyrrolo[2,3-b]pyridine-3-carbonyl]phenyl]pyrrolidine-1-sulfonamide] | < 0.1 | < 1
